Assay results from publication PMC11788862 (Journal of Pharmaceutical Analysis, 2024).

How the values were obtained:
[1] = target: NOD-like receptor protein 3 (NLRP3) (Homo sapiens, UniProt Q96P20); assay: SPR; type: binding
NLRP3 = NLRP3 (Mus musculus, UniProt Q8R4B8); assay: DARTS; type: cell-based
Sequence of NLRP3 (Q8R4B8 whole entry): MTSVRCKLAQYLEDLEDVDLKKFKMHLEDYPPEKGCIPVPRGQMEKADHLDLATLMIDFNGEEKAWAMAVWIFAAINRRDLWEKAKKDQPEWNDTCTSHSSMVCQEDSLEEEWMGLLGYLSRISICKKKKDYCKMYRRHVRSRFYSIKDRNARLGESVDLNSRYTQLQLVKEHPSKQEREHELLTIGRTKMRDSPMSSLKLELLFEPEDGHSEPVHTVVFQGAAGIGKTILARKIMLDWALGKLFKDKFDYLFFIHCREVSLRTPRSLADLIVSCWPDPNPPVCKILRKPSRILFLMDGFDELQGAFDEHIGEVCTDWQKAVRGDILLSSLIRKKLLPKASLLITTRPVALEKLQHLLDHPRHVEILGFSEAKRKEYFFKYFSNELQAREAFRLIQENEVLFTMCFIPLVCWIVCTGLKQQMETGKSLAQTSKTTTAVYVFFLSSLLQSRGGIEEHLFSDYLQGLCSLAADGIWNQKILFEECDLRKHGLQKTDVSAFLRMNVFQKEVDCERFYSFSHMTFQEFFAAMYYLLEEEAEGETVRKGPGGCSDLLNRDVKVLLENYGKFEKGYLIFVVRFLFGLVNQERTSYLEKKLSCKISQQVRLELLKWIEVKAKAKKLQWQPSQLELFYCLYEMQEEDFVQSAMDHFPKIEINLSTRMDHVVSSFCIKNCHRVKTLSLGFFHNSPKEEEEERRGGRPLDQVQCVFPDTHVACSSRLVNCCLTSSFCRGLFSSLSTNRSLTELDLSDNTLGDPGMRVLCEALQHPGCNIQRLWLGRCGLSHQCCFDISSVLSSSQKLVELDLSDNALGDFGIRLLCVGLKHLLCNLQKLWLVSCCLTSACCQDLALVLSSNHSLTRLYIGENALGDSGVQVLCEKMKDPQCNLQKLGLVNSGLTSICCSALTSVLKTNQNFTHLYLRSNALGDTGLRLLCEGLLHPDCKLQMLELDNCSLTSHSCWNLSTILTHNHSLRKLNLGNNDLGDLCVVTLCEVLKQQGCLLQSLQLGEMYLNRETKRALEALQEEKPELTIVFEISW

Sequence of NOD-like receptor protein 3 (NLRP3) (Q96P20 220-536 limits assumed): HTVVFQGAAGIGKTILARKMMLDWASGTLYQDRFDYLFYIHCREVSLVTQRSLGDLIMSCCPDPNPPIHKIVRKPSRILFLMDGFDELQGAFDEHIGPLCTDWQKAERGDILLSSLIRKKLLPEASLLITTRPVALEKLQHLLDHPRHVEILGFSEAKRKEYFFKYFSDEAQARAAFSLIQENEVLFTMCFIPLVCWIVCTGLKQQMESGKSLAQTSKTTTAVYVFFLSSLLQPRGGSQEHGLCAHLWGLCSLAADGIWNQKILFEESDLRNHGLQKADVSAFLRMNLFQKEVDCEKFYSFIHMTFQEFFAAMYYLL

## Oc1c(I)cc(Cl)c2cccnc12 [CQ, 5-chloro-7-iodo-8-hydroxyquinoline]
[1]
  Kd: 9.93 µM
NLRP3
  DARTS (BMDM lysates, CQ 15 μM) and CETSA (BMDMs): pre-incubation of CQ with BMDM cell lysates attenuated pronase-induced proteolysis of NLRP3
